Molecular target: T1, cAMPinG1 (Mus musculus, UniProt Q9DBC7, DEL187-189)
T1 construct: gene Prkar1a; PKA-R1α residues 108-186 and 190-381, N-terminus removed, cpGFP (from GCaMP6f) inserted in the β4–β5 loop replacing 187-189, engineered linkers/cpGFP, N-terminal RSET; expressed in HEK293T, lysate
Test: sensor fluorescence titration in HEK293T lysate, Hill fit
Format: binding

T1 sequence (Q9DBC7 108-186, stated change not applied): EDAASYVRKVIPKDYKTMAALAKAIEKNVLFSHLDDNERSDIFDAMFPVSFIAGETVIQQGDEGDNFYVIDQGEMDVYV
T1 sequence (Q9DBC7 190-381, stated change not applied): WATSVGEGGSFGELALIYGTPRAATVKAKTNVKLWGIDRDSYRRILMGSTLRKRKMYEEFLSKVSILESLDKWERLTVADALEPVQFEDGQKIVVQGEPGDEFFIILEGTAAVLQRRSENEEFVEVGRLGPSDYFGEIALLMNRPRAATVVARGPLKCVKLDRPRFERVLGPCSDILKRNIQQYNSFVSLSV

Kd: 12.2 µM
SMILES: Nc1nc2c(ncn2[C@@H]2O[C@@H]3COP(=O)(O)O[C@H]3[C@H]2O)c(=O)[nH]1 [cGMP]

From article PMC11093745 (Nature Methods, 2024)
